Results reported in patent US20050148616A1, “Inhibitor of TNF-alpha and IL-1beta production” (priority 2003, published 2005).
Counter-ions that a name gives are not always drawn.

Experiments:
TNF-α = assay: LPS-induced TNF-α production in human normal PBMCs (ELISA); assay type: cell-based
Protocol: (§1) PBMCs were isolated from fresh blood using a Ficoll-Paque Plus reagent (Amersham Bioscience) according to the protocol recommended by the manufacturer. The cells were suspended in a RPMI 1640 medium containing 10% FBS at a concentration of 1×10^5 cells/ml and seeded in a 96-well plate (1×10^4 cells total in each well). Each reaction was carried out in three wells.
(§2) 10 μl of pseudolycorine hydrochloride in DMSO was added to wells to obtain the final concentrations at 0.1, 0.3, 1, 3, 10, 30, and 100 μg/ml. In a positive control, dexamethason (DEX), an anti-inflammatory agent, instead of pseudolycorine hydrochloride, was added (final concentration 10 μM). In a negative control, 10 μl of the medium, instead of pseudolycorine hydrochloride, was added. The plate was placed in a 5% CO2 incubator at 37° C. for 15 minutes. After 10 μl aliquots of 100 μg/ml of LPS were added to all wells except for the negative control, the plate was placed in a 5% CO2 incubator at 37° C. overnight.
(§3) The plate was spun at 1000 rpm for 15 minutes and the supernatants were collected. The concentrations of TNF-α and IL-1β were measured by the TNF-α ELISA (Enzyme Linked Immunosorbent Assay) Kit and IL-1β ELISA Kit (Jingmei Bioengineer Technology). The inhibition ratios of TNF-α and IL-1β were calculated as follows: TNF-α Inhibition Ratio (%)=[TNF-α]control−[TNF-α]PHCl/[TNF-α]control×100% IL-1β Inhibition Ratio (%)=[IL-1β]control−[IL-1β]PHCl/[IL-1β]control×100% where [TNF-α]PHCl is the concentration of TNF-α in PBMCs treated with pseudolycorine hydrochloride and LPS, [TNF-α]control is the concentration of TNF-α in PBMCs treated with LPS and the medium, [IL-1β]PHCl is the concentration of IL-1β in PBMCs treated with pseudolycorine hydrochloride and LPS, and [IL-1β]control is the concentration of IL-1β in PBMCs treated with LPS and the medium.

IL-1β = assay: LPS-induced IL-1β production in human normal PBMCs (ELISA); assay type: cell-based
Protocol: as §1, §2, §3

[1] = compared with dexamethason (DEX) at 10 μM, LPS-stimulated human PBMCs

For `COc1cc2c(cc1O)[C@@H]1[C@H](O)[C@@H](O)C=C3CCN(C2)[C@H]31` [pseudolycorine hydrochloride], the “inhibition of expression of TNF-α, concentration dependence” value (TNF-α; 0.1-100 μg/ml, FIG. 3) was “concentration-dependent manner”, the “concentration at which expression of TNF-α was inhibited” value (TNF-α; LPS-stimulated human PBMCs, overnight, ELISA of supernatant, FIG. 1) was at least 0.3 µg/mL and the “concentration at which expression of TNF-α was inhibited more effectively than DEX” value (TNF-α; [1]) was at least 3 µg/mL. For the same compound, the “inhibition of expression of IL-1β, concentration dependence” value (IL-1β; 0.1-100 μg/ml, FIG. 4) was “concentration-dependent manner”, the “concentration at which expression of IL-1β was inhibited” value (IL-1β; LPS-stimulated human PBMCs, overnight, ELISA of supernatant, FIG. 2) was at least 1 µg/mL and the “concentration at which expression of IL-1β was inhibited more effectively than DEX” value (IL-1β; [1]) was at least 10 µg/mL.
